The values that follow come from ChEMBL document CHEMBL1136525, “6,7-dihydroxyisoquinoline-3-carboxylic acids are potent inhibitors on the binding of insulin-like growth factor (IGF) to IGF-binding proteins: optimization of the 1-position benzoyl side chain” (Bioorg Med Chem Lett, 2003).

Each structure is given as a SMILES string. Where only a bound is given, the exact number is not on record here.

This assay deals with Insulin-like growth factor-binding protein 3 (Homo sapiens, UniProt P17936). The assay can be described thus: Ability to displace Insulin-Like Growth Factor (IGF-I) from its binding to human insulin-like growth factor binding protein 3 (hIGFBP-3).
Insulin-like growth factor-binding protein 3, sequence (P17936 whole entry): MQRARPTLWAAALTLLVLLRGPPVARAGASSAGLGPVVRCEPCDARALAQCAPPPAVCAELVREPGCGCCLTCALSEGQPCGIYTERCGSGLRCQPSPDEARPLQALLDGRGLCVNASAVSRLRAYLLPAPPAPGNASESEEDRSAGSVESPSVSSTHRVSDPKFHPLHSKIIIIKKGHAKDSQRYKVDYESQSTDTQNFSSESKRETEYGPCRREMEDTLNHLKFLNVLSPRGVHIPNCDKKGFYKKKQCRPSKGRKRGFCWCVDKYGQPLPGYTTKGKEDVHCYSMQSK

With `O=C(O)c1cc2cc(O)c(O)cc2c(C(O)c2ccc(Oc3ccccc3)cc2)n1` (configuration not stated), the inhibition constant Ki (usually a dissociation constant, usually derived from enzyme kinetics or from competition with a known ligand) came to 32 nM. The figure for `O=C(O)c1cc2cc(O)c(O)cc2c(C(=O)c2ccc(Oc3cc(Cl)cc(Cl)c3)c(F)c2)n1` is 9 nM; for `Nc1ccc(C(=O)c2nc(C(=O)O)cc3cc(O)c(O)cc23)cc1` it is 130 nM.

Regarding `O=C(O)c1cc2cc(O)c(O)cc2c(C(=O)c2ccc(Oc3ccc(Cl)c(Cl)c3)c(F)c2)n1`, the inhibition constant Ki turned out to be 12 nM. Compound `O=C(O)c1cc2cc(O)c(O)cc2c(C(=O)c2ccc(F)c(F)c2)n1` yielded an inhibition constant (Ki) of 51 nM. The figure for `O=C(O)c1cc2cc(O)c(O)cc2c(Cc2ccc3c(c2)OCO3)n1` is 72 nM; for `CS(=O)(=O)Nc1cc2cc(C(=O)O)nc(C(=O)c3ccc4c(c3)OCO4)c2cc1O` it is > 10000 nM. `Cc1cc(C)c(C(O)c2nc(C(=O)O)cc3cc(O)c(O)cc23)c(C)c1` (configuration not stated): the affinity corresponds to a Ki of 11 nM. For `O=C(O)c1cc2cc(O)c(O)cc2c(C(=O)c2ccc(Oc3cccc(Cl)c3)c(F)c2)n1`, the Ki was 11 nM. For the compound `O=C(O)c1cc2cc(O)c(O)cc2c(C(=O)c2ccc(Sc3ccc(Cl)cc3)c(F)c2)n1`, the Ki came out at 31 nM.

Turning to `O=C(O)c1cc2cc(O)c(O)cc2c(C(=O)c2ccc(Cl)c(Cl)c2)n1`, the Ki turned out to be 29 nM.

Turning to `Cc1cc(C)c(C(=O)c2nc(C(=O)O)cc3cc(O)c(O)cc23)c(C)c1`, the inhibition constant Ki amounted to 100 nM.

In the case of `O=C(O)c1cc2cc(O)c(O)cc2c(C(O)c2cccc(F)c2)n1` (configuration not stated), the affinity corresponds to a Ki of 24 nM. Turning to `O=C(O)c1cc2cc(O)c(O)cc2c(C(O)c2ccccc2Cl)n1` (configuration not stated), the inhibitory constant (Ki) came to 25 nM.

Turning to `Cc1ccc(Oc2ccc(C(=O)c3nc(C(=O)O)cc4cc(O)c(O)cc34)cc2F)cc1`, the Ki was found to be 9.4 nM.

Compound `O=C(O)c1cc2cc(O)c(O)cc2c(C(=O)c2ccc(Oc3ccc(-c4ccccc4)cc3)c(F)c2)n1` registered an inhibition constant (Ki) of 32 nM. As to `O=C(O)c1cc2cc(O)c(O)cc2c(C(=O)c2ccc(C(F)(F)F)cc2)n1`, the inhibition constant Ki worked out at 38 nM. In the case of `O=C(O)c1cc2cc(O)c(O)cc2c(C(=O)c2ccc(Oc3ccc(C(F)(F)F)cc3)c(F)c2)n1` it was 32 nM. Take `O=C(O)c1cc2cc(O)c(O)cc2c(C(=O)c2cccc(F)c2)n1`: the affinity corresponds to a Ki of 110 nM. In the case of `O=C(O)c1cc2cc(O)c(O)cc2c(C(=O)c2ccc([N+](=O)[O-])cc2)n1` it was 32 nM; in that of `Nc1cc2cc(C(=O)O)nc(C(=O)c3ccc(O)c(O)c3)c2cc1O`, 60 nM.

With `O=C(O)c1cc2cc(O)c(O)cc2c(C(=O)c2ccc(Oc3ccc(Cl)cc3)c(F)c2)n1`, the Ki came to 20 nM.

Turning to `CCCCC(CC)CNc1ccc(C(=O)c2nc(C(=O)O)cc3cc(O)c(O)cc23)cc1F` (configuration not stated), the Ki is 62 nM.

The compound `Nc1cc2cc(C(=O)O)nc(C(=O)c3ccc4c(c3)OCO4)c2cc1O` showed a Ki of 850 nM. In turn, `CS(=O)(=O)Nc1ccc(C(=O)c2nc(C(=O)O)cc3cc(O)c(O)cc23)cc1` displayed an inhibition constant Ki of 110 nM. Regarding `O=C(O)c1cc2cc(O)c(O)cc2c(C(=O)c2ccccc2Cl)n1`, affinity was put at a Ki of 110 nM.

Compound `O=C(O)c1cc2cc(O)c(O)cc2c(C(O)c2ccc(C(F)(F)F)cc2)n1` (configuration not stated) came in with a Ki of 18 nM.
